Biological target: T1, human Kv7.2+3 (Homo sapiens, UniProt O43525+O43526)
T1 construct: expressed in transfected cells; host or cells: HEK293
Assay: FLIPR-based thallium influx characterization of Kv7.2+3 modulators
Assay type: cell-based
Settings: for EC50: HEK293 cells over-expressing human Kv7.2+3, Tl+ influx, BTC-AM, FLIPR, 50% of channel activity compared to retigabine control responses; for Emax: maximal response relative to the reference (retigabine) response, HEK293 human Kv7.2+3, Tl+ influx FLIPR, read-out: Efficacy
Method: This experiment determines the ability of a test compound to modulate the activity of Kv7.2+3 channels heterologously expressed in human HEK293 cells. The ability is determined relative to retigabine. The activity is determined using a standard thallium (I) sensitive assay, e.g. using a fluorometric method in a Fluorescent Image Plate Reader (FLIPR) as described below in more detail.
Full concentration/response curves are generated and EC50 values are calculated based on max values. EC50 values (Effective Concentration) represent the concentration of the test substance, at which 50% of the channel activity is obtained when compared to retigabine control responses. Maximal response determined relative to the reference (retigabine) response is calculated.
Human HEK293 cells over-expressing human Kv7.2+3 are grown in culture medium (DMEM supplemented with 10% foetal bovine serum), in polystyrene culture flasks ([…]) in a humidified atmosphere of 5% CO2 in air, at 37° C. Cell confluence should be 80-90% on day of plating. Cells are rinsed with 4 ml of PBS (phosphate buffered saline) and incubated 2 min with 1 ml of Trypsin-EDTA. After addition of 25 ml of culture medium cells are re-suspended by trituration with a 25 ml pipette.
The cells are seeded at a density of ˜3×10^6 cells/ml (25 μl/well) in black-walled, clear bottom, 384-well plates pre-treated with 0.01 g/l poly-D-lysin (20 μl/well for ≧30 min). Plated cells were allowed to proliferate for 24 h before loading with dye.
BTC-AM ([…], Invitrogen) is added 25.5 μl DMSO. The BTC-AM stock solution (2 mM) is diluted to a final concentration of 2 μM in Cl^− free assay buffer (in mM: 140 Natgluconate, 2.5 K^+-gluconate, 6 Ca2^+-gluconate, 1 Mg^2+ gluconate, 5 glucose, 10 HEPES, pH 7.3) containing 2 μM ouabain, 2 mM amaranth and 1 mM tartrazine.
The culture medium is aspirated from the wells, the cells are washed thrice in Cl^− free assay buffer, and 25 μl of the BTC-AM loading solution is added to each well. The cells are incubated at 37° C. for 60 min.
After the loading period, the Tl^+-sensitive BTC fluorescence signal is measured over time using a FLIPR.
• Temperature: Room temp. • First addition: 12 μl test or control compound after 15 sec at a rate of 30 μl/sec and starting height of 20 μl • Second addition: 12 μl stimulus buffer (Cl^− free assay buffer supplemented with 1 mM Tl2SO4, 5 mM K2SO4 as well as the quenchers amaranth (2 mM) and tartrazine (1 mM)) is added after an additional 3 minutes at a rate of 30 μl/sec and starting height of 30 μl • Reading intervals: First sequence—3 sec×5, 2 sec×24 and 5 sec×25 • Second sequence—1 sec×5, 2 sec×24 and 5 sec×36
Addition plates (compound plate and stimulus plate) are placed in positions 2 and 3, respectively. Cell plates are placed in position 1 and run using the “KCNQ (two additions)” program. FLIPR will then take the appropriate measurements in accordance with the interval settings above. Fluorescence obtained after stimulation is corrected for the mean basal fluorescence (in Cl^− free assay buffer).
Full concentration/response curves are generated and EC50 values (“Effective Concentration”; the concentration at which 50% of the channel activity is obtained when compared to retigabine control responses) are calculated based on peak values. Maximal response determined relative to the reference (retigabine) response is calculated.

EC50	Emax	Compound
1400 nM	118%	CN(C)c1nc2cc(F)ccc2c(=O)n1NC(=O)[C@@H]1C[C@@H]1c1ccc(Cl)cc1 (relative stereo) [Compound 2.1, cis-2-(4-Chloro-phenyl)-cyclopropanecarboxylic acid (2-dimethylamino-7-fluoro-4-oxo-4H-quinazolin-3-yl)-amide]
940 nM	114%	CCN(C)c1nc2cc(F)ccc2c(=O)n1NC(=O)[C@@H]1C[C@@H]1c1ccc(Cl)cc1 (relative stereo) [Compound 2.4, cis-2-(4-Chloro-phenyl)-cyclopropanecarboxylic acid [2-(ethyl-methyl-amino)-7-fluoro-4-oxo-4H-quinazolin-3-yl]-amide]
930 nM	114%	CC(C)N(C)c1nc2cc(F)ccc2c(=O)n1NC(=O)[C@@H]1C[C@@H]1c1ccc(Cl)cc1 (relative stereo) [Compound 2.5, cis-2-(4-Chloro-phenyl)-cyclopropanecarboxylic acid [7-fluoro-2-(isopropyl-methyl-amino)-4-oxo-4H-quinazolin-3-yl]-amide]
260 nM	154%	O=C(CCc1cccc(F)c1)Nn1c(N2CCCC2)nc2cc(F)ccc2c1=O [Compound 1.1, N-(7-Fluoro-4-oxo-2-pyrrolidin-1-yl-4H-quinazolin-3-yl)-3-(3-fluoro-phenvl)-propion-amide]
1600 nM	118%	CN(Cc1ccccc1)c1nc2ccccc2c(=O)n1NC(=O)CCc1cccc(F)c1 [Compound 1.3, N-[2-(Benzyl-methyl-amino)-4-oxo-4H-quinazolin-3-yl]-3-(3-fluoro-phenyl)-propion-amide]
410 nM	148%	O=C(CCc1cccc(F)c1)Nn1c(N2CCCC2)nc2ccccc2c1=O [Compound 1.5, 3-(3-Fluoro-phenyl)-N-(4-oxo-2-pyrrolidin-1-yl-4H-quinazolin-3-yl)-propion-amide]
2500 nM	112%	CN(C)c1nc2cc(F)ccc2c(=O)n1NC(=O)CCc1cccc(F)c1 [Compound 1.7, N-(2-Dimethylamino-7-fluoro-4-oxo-4H-quinazolin-3-yl)-3-(3-fluoro-phenyl)-propionamide]
3300 nM	103%	O=C(CSc1ccccc1)Nn1c(N2CCCC2)nc2ccccc2c1=O [Compound 1.8, N-(4-Oxo-2-pyrrolidin-1-yl-4H-quinazolin-3-yl)-2-phenylsulfanyl-acetamide]
340 nM	100%	O=C(CCc1cccc(F)c1)Nn1c(N2CCCC2)nc2cccc(F)c2c1=O [Compound 1.10, N-(5-Fluoro-4-oxo-2-pyrro-lidin-1-yl-4H-quinazolin-3-yl)-3-(3-fluoro-phenyl)-propionamide]
32 nM	122%	O=C(CCc1cccc(F)c1)Nn1c(N2CCCC2)nc2cc(F)cc(F)c2c1=O [Compound 1.12, N-(5,7-Difluoro-4-oxo-2-pyrrolidin-1-yl-4H-quina-zolin-3-yl)-3-(3-fluoro-phenyl)-propionamide]
2100 nM	41%	CC(C)(C)c1ccc(SCC(=O)Nn2c(N3CCCC3)nc3ccccc3c2=O)cc1 [Compound 1.13, 2-(4-tert-Butyl-phenyl-sulfanyl)-N-(4-oxo-2-pyrro-lidin-1-yl-4H-quinazolin-3-yl)-acetamide]
18 nM	112%	O=C(CCc1cc(F)cc(F)c1)Nn1c(N2CCCC2)nc2cc(F)cc(F)c2c1=O [Compound 1.15, N-(5,7-Difluoro-4-oxo-2-pyrrolidin-1-yl-4H-quina-zolin-3-yl)-3-(3,5-difluoro-phenyl)-propionamide]
100 nM	85%	CC(CC(=O)Nn1c(N2CCCC2)nc2ccccc2c1=O)c1ccc(Cl)cc1 (centres unmarked) [Compound 1.17, 3-(4-Chloro-phenyl)-N-(4-oxo-2-pyrrolidin-1-yl-4H-quinazolin-3-yl)-butyramide]
15 nM	98%	CC(CC(=O)Nn1c(N2CCCC2)nc2ccccc2c1=O)c1cccc(F)c1 (centres unmarked) [Compound 1.18, 3-(3-Fluoro-phenyl)-N-(4-oxo-2-pyrrolidin-1-yl-4H-quinazolin-3-yl)-butyramide]

More lines, now with the values behind:

Compound	EC50	Emax
CC(C)N(C)c1nc2cc(F)cc(F)c2c(=O)n1NC(=O)[C@@H]1C[C@@H]1c1ccc(Cl)cc1 (relative stereo) [Compound 2.2, cis-2-(4-Chloro-phenyl)-cyclopropanecarboxylic acid [5,7-difluoro-2-(isopropyl-methyl-amino)-4-oxo-4H-quinazolin-3-yl]-amide]	450 nM	116%
O=C(Nn1c(N2CCCC2)nc2cc(F)cc(F)c2c1=O)[C@@H]1C[C@@H]1c1ccc(Cl)cc1 (relative stereo) [Compound 2.3, cis-2-(4-Chloro-phenyl)-cyclopropanecarboxylic acid (5,7-difluoro-4-oxo-2-pyrro-lidin-1-yl-4H-quinazolin-3-yl)-amide]	830 nM	109%
CCN(C)c1nc2cc(F)cc(F)c2c(=O)n1NC(=O)[C@@H]1C[C@@H]1c1ccc(Cl)cc1 (relative stereo) [Compound 2.6, cis-2-(4-Chloro-phenyl)-cyclopropanecarboxylic acid [2-(ethyl-methyl-amino)-5,7-difluoro-4-oxo-4H-quina-zolin-3-yl]-amide]	500 nM	110%
O=C(Nn1c(N2CCCC2)nc2c(F)cccc2c1=O)[C@@H]1C[C@@H]1c1ccc(Cl)cc1 (relative stereo) [Compound 2.7, cis-2-(4-Chloro-phenyl)-cyclopropanecarboxylic acid (8-fluoro-4-oxo-2-pyrrolidin-1-yl-4H-quinazolin-3-yl)-amide]	270 nM	101%
COCCN(C)c1nc2ccccc2c(=O)n1NC(=O)CCc1cccc(F)c1 [Compound 1.2, 3-(3-Fluoro-phenyl)-N-{2-[(2-methoxy-ethyl)-methyl-amino]-4-oxo-4H-quinazolin-3-yl}-propionamide]	9500 nM	130%
CN(Cc1ccccc1)c1nc2ccccc2c(=O)n1NC(=O)CCc1cc(F)cc(F)c1 [Compound 1.4, N-[2-(Benzyl-methyl-amino)-4-oxo-4H-quinazolin-3-yl]-3-(3,5-difluoro-phenyl)-propionamide]	3900 nM	40%
O=C(CCc1ccccc1)Nn1c(N2CCCC2)nc2ccccc2c1=O [Compound 1.6, N-(4-Oxo-2-pyrrolidin-1-yl-4H-quinazolin-3-yl)-3-phenyl-propionamide]	660 nM	96%
O=C(COc1ccccc1)Nn1c(N2CCCC2)nc2ccccc2c1=O [Compound 1.9, N-(4-Oxo-2-pyrrolidin-1-yl-4H-quinazolin-3-yl)-2-phenoxy-acetamide]	12000 nM	75%
O=C(CSc1ccc(F)cc1)Nn1c(N2CCCC2)nc2ccccc2c1=O [Compound 1.11, 2-(4-Fluoro-phenylsulfanyl)-N-(4-oxo-2-pyrrolidin-1-yl-4H-quinazolin-3-yl)-acetamide]	2200 nM	106%
CC(C)N(C)c1nc2cc(F)cc(F)c2c(=O)n1NC(=O)CCc1cccc(F)c1 [Compound 1.14, N-[5,7-Difluoro-2-(isopropyl-methyl-amino)-4-oxo-4H-quinazolin-3-yl]-3-(3-fluoro-phenyl)-propionamide]	450 nM	109%
C[C@@H](CC(=O)Nn1c(N2CCCC2)nc2cc(F)cc(F)c2c1=O)c1ccccc1 [Compound 1.16, (S)-N-(5,7-Difluoro-4-oxo-2-pyrrolidin-1-yl-4H-quina-zolin-3-yl)-3-phenyl-butyr-amide]	2.8 nM	68%

Reference: US20110269783A1, “NOVEL 2,3-DIAMINO-QUINAZOLINONE DERIVATIVES AND THEIR MEDICAL USE” (NEUROSEARCH A/S, priority 2008, published 2011)
